Measurements published in patent US6060304A, “Method of producing conjugated fatty acids” (Wisconsin Alumni Research Foundation, priority 1998, dated 2000).

Columns and labels:
[1] = test system: linoleate isomerase of L. reuteri PYR8; experiment: Substrates tested with cells of L. reuteri PYR8, product analysed by GC; assay type: biochemical, Lactobacillus reuteri PYR8 (ATCC 55739); settings: for Major Products (putative) of the linoleate isomerase: 0.2 mg substrate reacted with 20 mg PYR8 cells, GC; for Activity as substrate of the Lactobacillus: unsaturated fatty acids lacking double bonds at both positions 9 and 12; for Activity of the organism / consumption relative to other substrates: effect of extra double bonds at position 6 and/or 15
Protocol: ^a Each substrate (0.2 mg) was reacted with the cells (20 mg) of L.
reuteri PYR8, and product was analyzed by GC, as described in methods.
Fatty acids were extracted with chloroform:methanol (2:1) and 4% KCl. Hexadecanoic acid (HDA) was added as an internal standard. […] Fatty acid peaks were separated with a fused silica capillary column, 60 m by […] I.D. with a 0.25 μm film thickness (Supelco Park, Bellefonte, Pa.).

[2] = test system: linoleate isomerase of L. reuteri PYR8; settings: for Rate of converting: 36-hour PYR8 cells
Protocol: Fatty acids were extracted with chloroform:methanol (2:1) and 4% KCl. Hexadecanoic acid (HDA) was added as an internal standard. The extraction mix was centrifuged at 2000 g for 5 minutes, then the chloroform fraction containing the fatty acids (bottom fraction) was removed and dried down by nitrogen gas. The fatty acids were suspended in 4% HCl in anhydrous methanol, and were methylated in a 60° C. water bath for 20 minutes. Finally, drops of double distilled water (DDW) were added to the methylation tube and hexane was used to re-extract the fatty acid. After washing twice with DDW and dehydrating by sodium sulfate, 1-2 μl of the hexane fraction was injected into a model 5890 series II gas chromatograph fitted with a model 3396A integrator (Hewlett-Packard Company, Avondale, Pa.) for fatty acid analysis. Fatty acid peaks were separated with a fused silica capillary column, 60 m by […] I.D. with a 0.25 μm film thickness (Supelco Park, Bellefonte, Pa.).
Thirty-six-hour cultures were diluted in 0.1M Tris-HCl (pH 8.55) buffer to 1:10, 1:15, 1:20 (w/v). Five ml of each suspension were reacted with 2.0 mg of linoleic acid for 1, 2, or 3 hours at 12° C. At 1:15, five ml were incubated with 1.0 mg, 1.5 mg, 2.0 mg and 3.0 mg of alpha-linolenic acid for 1 hour, or with 2.0 mg of gamma-linolenic acid for 1, 2, 3, 4, or 24 hours at 4° C. Fatty acids were extracted with chloroform:methanol and assayed by the GC method.

[3] = test system: mammary cancer; settings: rodents; cited from earlier work
[4] = test system: epidermal carcinogenesis and forestomach neoplasia; settings: mice; cited from earlier work
[5] = rabbits fed an atherogenic diet; cited from earlier work
[6] = mouse, rat and chick models; cited from earlier work
[7] = test system: carcinogen-induced rat mammary tumors; settings: cited from earlier work
[8] = chicks, mice and rats; cited from earlier work
[9] = test system: atherosclerosis; settings: rabbits and hamsters; cited from earlier work

Molecule | Major Products (putative) of the linoleate isomerase [1] | Activity as substrate of the Lactobacillus [1] | Rate of converting [2] | other results
Octadecanoic acid | None | Inactive |  | 
CCCCC/C=C\C/C=C\C/C=C\C/C=C\CCCC(=O)O [Arachidonic acid] | None | Inactive |  | 
CCCCC/C=C\C/C=C\C/C=C\CCCCC(=O)O [Gamma-linolenic acid] | cis6, cis9, trans11 |  | less than 0.25 mg/hour/gram cells | Conversion to cis-6, cis-9, trans-11 isomer in 24 hours ([2]; dilution 1:15, 2.0 mg substrate, 4° C.): unable to convert; Activity of the organism / consumption relative to other substrates [1]: reduced
CCCCCCCC/C=C\CCCCCCCC(=O)O [Oleic acid] | None | Inactive |  | 
CCCCC/C=C\C/C=C\CCCCCCCC(=O)O [Linoleic acid] | cis9, trans11 isomer |  | 3.2 mg/hour/gram cells | Effect on mammary cancer [3]: associated with enhancing mammary cancer
CC/C=C\C/C=C\C/C=C\CCCCCCCC(=O)O [Alpha-linolenic acid] | cis9, trans11, cis15 |  | 8.0 mg/hour/gram cells | Amount of substrate converted in one hour ([2]; dilution 1:15, five ml, 4° C.): 2.5 mg; Activity of the organism / consumption relative to other substrates [1]: promoted
Conjugated linoleic acid [CLA] |  |  |  | Inhibition of epidermal carcinogenesis and forestomach neoplasia [4]: effective inhibitor; Ratio of LDL-cholesterol to HDL-cholesterol [5]: can decrease; Body fat [6]: reduces body fat; Inhibition of carcinogen-induced mammary tumors [7]: effective inhibitor; Prevention of adverse effects caused by immune stimulation [8]: can prevent adverse effects; Inhibition of atherosclerosis [9]: inhibits atherosclerosis
